Results from ChEMBL document CHEMBL3997761 (Medchemcomm, 2016).
Calls of active or inactive are those of the source. The rule behind the calls is not given here.

Experiments:
[1] = system: K562; experiment: Induction of apoptosis in human K562 cells assessed as early apoptotic cells at 10 uM after 12 hrs by Annexin V-FITC/propidium iodide staining based flow cytometry (reference value: 5.1%); type: functional
[2] = system: Plasma; experiment: Induction of nanoparticle formation in rat plasma assessed as nanoparticle size at 1 uM by atomic force microscopy; type: cell-free
[3] = system: K562; experiment: Induction of apoptosis in human K562 cells assessed as necrotic cells at 10 uM after 12 hrs by Annexin V-FITC/propidium iodide staining based flow cytometry (reference value: 0.6%); type: functional
[4] = system: HCT-8; experiment: Antiproliferative activity against human HCT8 cells after 48 hrs by MTT assay; type: functional, cell-based; details: HCT-8, 48 h
[5] = Induction of nanoparticle solid formation assessed as nanoparticle size at 1 uM by scanning electron microscopic method
[6] = system: HL-60; experiment: Antiproliferative activity against human HL60 cells after 48 hrs by MTT assay; type: functional, cell-based; details: HL-60, 48 h
[7] = Induction of nanoparticle formation in ultrapure water assessed as nanoparticle size at 1 uM under 650 nanometer laser beam irradiation
[8] = system: Mus musculus; experiment: Downregulation of P-selectin expression in ip dosed ICR mouse serum implanted with mouse S180 cells by ELISA; type: functional, organism-based
[9] = Induction of nanoparticle formation in ultrapure water assessed as nanoparticle size at 0.1 uM by transmission electron microscopic method
[10] = system: K562; experiment: Induction of apoptosis in human K562 cells assessed as late apoptotic cells at 10 uM after 24 hrs by Annexin V-FITC/propidium iodide staining based flow cytometry (reference value: 1.9%); type: functional
[11] = system: Mus musculus; experiment: Downregulation of TNFalpha levels in ip dose ICR mouse serum implanted with mouse S180 cells by ELISA; type: functional, organism-based
[12] = system: Mus musculus; experiment: Antiinflammatory activity in xylene induced ICR mouse ear edema model assessed as decrease in serum TNFalpha level at 1 umol/kg, po pretreated for 30 mins followed by xylene administration measured after 2 hrs by ELISA; type: functional, organism-based
[13] = Drug uptake in nucleus of human HT-29 cells at 40 uM by fluorescence microscopy; type: ADME; details: TDE = time-dependent effect
[14] = system: Mus musculus; experiment: Antiinflammatory activity in xylene induced ICR mouse ear edema model assessed as decrease in serum IL2 level at 1 umol/kg, po pretreated for 30 mins followed by xylene administration measured after 2 hrs by ELISA; type: functional, organism-based
[15] = species on record: Bos taurus; experiment: Binding affinity to calf thymus DNA by CD spectrum analysis
[16] = system: HeLa; experiment: Antiproliferative activity against human HeLa cells after 48 hrs by MTT assay; type: functional, cell-based
[17] = Drug uptake in nucleus of human SH-SY5Y cells at 40 uM by fluorescence microscopy; type: ADME; details: TDE = time-dependent effect
[18] = system: Mus musculus; experiment: Antiinflammatory activity in ICR mouse assessed as inhibition of xylene-induced ear edema at 1 umol/kg, po pretreated for 30 mins followed by xylene administration measured after 2 hrs relative to control; type: functional, organism-based
[19] = system: K562; experiment: Induction of apoptosis in human K562 cells assessed as live cells at 10 uM after 12 hrs by Annexin V-FITC/propidium iodide staining based flow cytometry (reference value: 91.6%); type: functional
[20] = system: K562; experiment: Induction of apoptosis in human K562 cells at 10 uM by Annexin V-FITC/propidium iodide staining based flow cytometry; type: functional, cell-based; details: TDE = time-dependent effect
[21] = system: CCRF S-180; experiment: Potency index, ratio of compound effect to doxorubicin effect for antitumor activity against mouse S180 cells implanted in ICR mouse assessed as decrease in tumor weight; type: functional
[22] = system: K562; experiment: Induction of apoptosis in human K562 cells assessed as late apoptotic cells at 10 uM after 12 hrs by Annexin V-FITC/propidium iodide staining based flow cytometry (reference value: 1.7%); type: functional
[23] = system: A549; experiment: Antiproliferative activity against human A549 cells after 48 hrs by MTT assay; type: functional, cell-based; details: A549, 48 h
[24] = Drug uptake in nucleus of human HeLa cells at 40 uM by fluorescence microscopy; type: ADME, cell-based; details: TDE = time-dependent effect
[25] = system: Plasma; experiment: Induction of nanoparticle formation in rat plasma by atomic force microscopy; type: cell-free
[26] = system: CCRF S-180; experiment: Antitumor activity against mouse S180 cells implanted in ICR mouse assessed as decrease in tumor size at 0.01 to 1 umol/kg, ip administered daily for 10 days and measured 24 hrs post last dose; type: functional, organism-based
[27] = Induction of nanoparticle solid formation by scanning electron microscopic method
[28] = system: K562; experiment: Antiproliferative activity against human K562 cells after 48 hrs by MTT assay; type: functional, cell-based; details: K562, 48 h
[29] = Induction of nanoparticle formation in ultrapure water assessed as nanoparticle size at 10 uM by transmission electron microscopic method
[30] = Induction of nanoparticle formation in ultrapure water assessed as nanoparticle size at 1 uM by transmission electron microscopic method
[31] = system: HT-29; experiment: Antiproliferative activity against human HT-29 cells after 48 hrs by MTT assay; type: functional, cell-based; details: HT-29, 48 h
[32] = Induction of nanoparticle solid formation assessed as nanoparticle size at 0.1 uM by scanning electron microscopic method
[33] = system: Mus musculus; experiment: Potency index, ratio of compound effect to aspirin effect for antiinflammatory activity in ICR mouse assessed as inhibition of xylene-induced ear edema; type: functional
[34] = system: CCRF S-180; experiment: Antitumor activity against mouse S180 cells implanted in ICR mouse assessed as decrease in tumor weight administered intraperitoneally daily for 10 days and measured after 24 hrs last dose; type: functional
[35] = system: Plasma; experiment: Induction of nanoparticle formation in rat plasma assessed as nanoparticle size at 10 uM by atomic force microscopy; type: cell-free
[36] = species on record: Bos taurus; experiment: Binding affinity to calf thymus DNA by UV spectrum analysis
[37] = system: K562; experiment: Induction of apoptosis in human K562 cells assessed as early apoptotic cells at 10 uM after 24 hrs by Annexin V-FITC/propidium iodide staining based flow cytometry (reference value: 3.2%); type: functional
[38] = system: Plasma; experiment: Induction of nanoparticle formation in rat plasma assessed as nanoparticle size at 0.1 uM by atomic force microscopy; type: cell-free
[39] = Induction of nanoparticle formation in ultrapure water by transmission electron microscopic method
[40] = system: SH-SY5Y; experiment: Antiproliferative activity against human SH-SY5Y cells after 48 hrs by MTT assay; type: functional, cell-based
[41] = Induction of nanoparticle formation in ultrapure water assessed as Farady-Tyndall effect at 1 uM
[42] = Induction of nanoparticle formation in ultrapure water assessed as Farady-Tyndall effect at 1 uM under 650 nanometer laser beam irradiation
[43] = system: K562; experiment: Induction of apoptosis in human K562 cells assessed as live cells at 10 uM after 24 hrs by Annexin V-FITC/propidium iodide staining based flow cytometry (reference value: 94.3%); type: functional
[44] = Induction of nanoparticle formation in ultrapure water assessed as zeta potential at 1 uM under 650 nanometer laser beam irradiation
[45] = Induction of nanoparticle solid formation assessed as nanoparticle size at 10 uM by scanning electron microscopic method
[46] = system: K562; experiment: Induction of apoptosis in human K562 cells assessed as necrotic cells at 10 uM after 24 hrs by Annexin V-FITC/propidium iodide staining based flow cytometry (reference value: 0.6%); type: functional
[47] = species on record: Bos taurus; experiment: Binding affinity to calf thymus DNA assessed as fluorescence quenching by measuring bathochromic shift by spectrofluorometric method
[48] = system: Mus musculus; experiment: Antiinflammatory activity in ICR mouse assessed as inhibition of xylene-induced ear edema at 16.7 umol/kg, po pretreated for 30 mins followed by xylene administration measured after 2 hrs relative to control; type: functional, organism-based
[49] = system: CCRF S-180; experiment: Antitumor activity against mouse S180 cells implanted in ICR mouse assessed as decrease in tumor weight at 2 umol/kg, ip administered daily for 10 days and measured 24 hrs post last dose; type: functional, organism-based

Work on N=C(NCCC[C@H](NC(=O)c1cc2c(cn1)[nH]c1ccccc12)C(=O)OCc1ccccc1)N[N+](=O)[O-] yielded an Activity [1] of 14.5%, an Activity [2] of 78.5 to 98 nm and an Activity [3] of 3.5%. It also gave an IC50 [4] of 15.3 to 74.1 µM, an Activity [5] of 33.3 to 100 nm and an IC50 [6] of 15.3 to 74.1 µM. The Activity [7] was 165 nm, the Activity [8] was “Dose-dependent effect” and the Activity [9] was 8 to 72.7 nm. For the same compound, the Activity [10] was 12.4%, the Activity [11] was “Dose-dependent effect” and the Activity [12] was “Active”. For the same compound, the Drug uptake [13] was “Tde”, the Activity [14] was “Active” and the Activity [15] was “Dose-dependent effect”. For the same compound, the IC50 [16] was 15.3 to 74.1 µM, the Drug uptake [17] was “Tde” and the inhibition [18] was “Active”. The Activity [19] was 73%, the Activity [20] was “Tde” and the Ratio [21] was 2. For the same compound, the Activity [22] was 9%, the IC50 [23] was 15.3 to 74.1 µM and the Drug uptake [24] was “Tde”. For the same compound, the Activity [25] was “Dose-dependent effect”, the Activity [26] was “Active” and the Activity [27] was “Dose-dependent effect”. The IC50 [28] was 15.3 to 74.1 µM, the Activity [29] was 43.9 to 176 nm and the Activity [30] was 10.8 to 116 nm. It also gave an IC50 [31] of 15.3 to 74.1 µM, an Activity [32] of 28.6 to 88.9 nm and a Ratio [33] of 16.7. The Activity [34] was “Dose-dependent effect”, the MED [34] was 0.01 µmol/kg and the Activity [35] was 102 to 109 nm. For the same compound, the Activity [36] was “Dose-dependent effect”, the Activity [37] was 60.7% and the Activity [38] was 68.6 to 78.4 nm. The Activity [39] was “Dose-dependent effect”, the IC50 [40] was 15.3 to 74.1 µM and the Activity [41] was “inactive”. For the same compound, the Activity [42] was “Active”, the Activity [43] was 25.5% and the Activity [44] was -14.2 mV. For the same compound, the Activity [45] was 44.4 to 111 nm, the Activity [46] was 1.4% and the Activity [47] was “Dose-dependent effect”.

In the case of CC(=O)Oc1ccccc1C(=O)O, the inhibition [48] is reported as “Active”.

In the case of COc1cccc2c1C(=O)c1c(O)c3c(c(O)c1C2=O)C[C@@](O)(C(=O)CO)C[C@@H]3O[C@H]1C[C@H](N)[C@H](O)[C@H](C)O1, the Activity [49] is reported as “Active”.
